“And” between values parts separate entries of the source, which are not always exact repeats. Equal values may be shown once.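 Test compounds were applied to cells in 96-well plates for 48 hours at 5 doses. GI50 marks 50% less growth. TGI: concentration producing complete growth inhibition.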
What was measured:
Assay in all cases: NCI-60 cell line screen, 48 h
HOP-92 NSCLC = tested on: HOP-92 NSCLC
HS 578T breast = tested on: HS 578T breast
LOX IMVI melanoma = tested on: LOX IMVI melanoma
NCI-H23 lung = tested on: NCI-H23 lung
NCI-H460 lung = tested on: NCI-H460 lung
NCI/ADR-RES ovarian = tested on: NCI/ADR-RES ovarian
SK-MEL-5 melanoma = tested on: SK-MEL-5 melanoma
SN12C renal = tested on: SN12C renal
T-47D breast = tested on: T-47D breast
SK-MEL-2 melanoma = tested on: SK-MEL-2 melanoma

| Structure (SMILES) | TGI (HOP-92 NSCLC) | TGI (HS 578T breast) | TGI (LOX IMVI melanoma) | TGI (NCI-H23 lung) | TGI (NCI-H460 lung) | TGI (NCI/ADR-RES ovarian) | TGI (SK-MEL-5 melanoma) | TGI (SN12C renal) | TGI (T-47D breast) | TGI (SK-MEL-2 melanoma) | GI50 (HOP-92 NSCLC) | GI50 (NCI-H23 lung) | GI50 (NCI-H460 lung) | GI50 (SK-MEL-2 melanoma) | GI50 (SN12C renal) | GI50 (HS 578T breast) | GI50 (NCI/ADR-RES ovarian) | GI50 (T-47D breast) |
| --- | --- | --- | --- | --- | --- | --- | --- | --- | --- | --- | --- | --- | --- | --- | --- | --- | --- | --- |
| Cc1ccc(S(=O)(=O)NNC(=O)c2cc(C)ccc2NC(=O)C23CC4CC(CC(C4)C2)C3)cc1 | 91.5 µM | > 100 µM | > 100 µM | > 100 µM | > 100 µM | > 100 µM | > 100 µM | > 100 µM | > 100 µM |  |  |  |  |  |  |  |  |  |
| O=C(NCc1cccc(C(F)(F)F)c1)c1cc2sccc2nc1C(F)(F)F | > 100 µM | 94.1 µM |  | > 100 µM |  | > 100 µM | > 100 µM | > 100 µM | > 100 µM | > 100 µM |  |  |  |  |  |  |  |  |
| Cc1cc(=O)n2nc(SCc3ccccc3)sc2n1 | > 100 µM | > 100 µM | > 100 µM | > 100 µM | > 100 µM | > 100 µM | > 100 µM | > 100 µM | > 100 µM |  |  |  |  |  |  |  |  |  |
| O=C(/C(=C\C(=O)c1cccs1)c1ccsc1)c1ccc(Br)cc1 |  | > 100 µM |  | > 100 µM | > 100 µM | > 100 µM | > 100 µM | > 100 µM | > 100 µM | > 100 µM |  |  |  |  |  |  |  |  |
| Cc1ccc(C2=NOC(=O)[C@@H]3CCCC[C@@H]23)cc1 |  | > 100 µM | > 100 µM | > 100 µM |  | > 100 µM | > 100 µM | > 100 µM | > 100 µM |  |  |  |  |  |  |  |  |  |
| Cc1ccc(C(C)(C)C[P+](C)(c2ccccc2)c2ccccc2)cc1 | 9.5 µM |  | 37.8 µM | > 58.7 µM | > 100 µM | > 100 µM | 12.7 µM | > 86.3 µM |  | 19.7 µM |  |  |  |  |  |  |  |  |
| CCOC(=O)C(=[N+]=[N-])C(=O)Nc1nn2nnnc2c2ccccc12 | > 100 µM |  | > 100 µM | > 100 µM | > 100 µM | > 100 µM | > 100 µM | > 100 µM |  | > 100 µM |  |  |  |  |  |  |  |  |
| C/C(=C\c1ccccn1)c1ccccn1 | > 100 µM | > 100 µM |  | > 100 µM | > 100 µM | > 100 µM | > 100 µM |  |  | > 100 µM |  |  |  |  |  |  |  |  |
| [Cl][Pt+2][Cl].[NH-]C1CCCCC1[NH-] (stereo not drawn) | > 100 µM |  | > 59.3 µM | > 58.2 µM and > 100 µM and 17.5 µM | 17.9 µM and 36.1 µM and 14 µM | > 60.6 µM and > 100 µM and 13.1 µM | 33 µM and 19.5 µM and 4.39 µM | > 100 µM |  | > 74.1 µM and > 100 µM and 29.5 µM | 35.3 µM and > 100 µM and 29.7 µM | 7210 nM and 3260 nM and 1070 nM | 1940 nM and 903 nM and 287 nM | 28.8 µM and 12.8 µM and 3.93 µM | 8.78 µM and 6.22 µM and 2.62 µM |  |  |  |
| COC(=O)C1CCC(=O)N1C(=O)Cc1ccc(OC)cc1 (stereo not drawn) | > 100 µM |  | > 100 µM | > 100 µM | > 100 µM |  | > 100 µM | > 100 µM |  |  |  |  |  |  |  |  |  |  |
| COc1ccc(/C=c2\[nH]c3nc(=O)c(N4CCOCC4)c(N)n3c2=O)cc1 | > 100 µM | > 100 µM | > 100 µM | > 100 µM |  | > 100 µM | > 100 µM | > 100 µM | > 100 µM |  |  |  |  |  |  |  |  |  |
| OCC1OC(n2cnc3cncnc32)C(O)C1O (stereo not drawn) | 4.21 µM |  | 2.46 µM | 3.68 µM | 1.49 µM | 2.25 µM | 3.25 µM | 3.97 µM |  | 3.41 µM |  |  |  |  |  |  |  |  |
| C[C@@H](O)C(=O)N1[C@@H]2CC3CC[C@]2(CS1(=O)=O)C3(C)C | > 100 µM |  | > 100 µM | > 100 µM | > 100 µM | > 100 µM | > 100 µM | > 100 µM | > 100 µM | > 100 µM |  |  |  |  |  |  |  |  |
| Cc1ccc(C(=O)N/N=C(\N=Nc2cccc(Cl)c2)c2ccc(N(CCC#N)CCC#N)cc2C)cc1 | > 100 µM |  | > 100 µM | > 100 µM | > 100 µM | > 100 µM | > 100 µM | > 100 µM | > 100 µM | > 100 µM |  |  |  |  |  |  |  |  |
| CC(C)=CCC/C(C)=C/CC/C(C)=C/Cc1c(O)c2ccccc2oc1=O | > 100 µM |  | > 100 µM | > 100 µM | > 100 µM |  |  | > 100 µM |  | > 100 µM |  |  |  |  |  |  |  |  |
| O=Cc1ccccc1OCCOc1cc(OCCOc2ccccc2C=O)c(OCCOc2ccccc2C=O)cc1OCCOc1ccccc1C=O | > 79.8 µM |  | > 100 µM | > 100 µM | > 100 µM |  | > 100 µM | > 100 µM |  | > 100 µM |  |  |  |  |  |  |  |  |
| N#Cc1nc(CCCCCN2C(=O)c3ccccc3C2=O)oc1N |  | > 100 µM | > 100 µM | > 100 µM | > 100 µM | > 100 µM | > 100 µM | > 100 µM | > 100 µM | > 100 µM |  |  |  |  |  |  |  |  |
| Cc1cccc2c1[nH]c1[nH]c(=O)[nH]c(=O)c12 | > 100 µM | > 100 µM | > 100 µM | > 100 µM |  | > 100 µM | > 100 µM | > 100 µM | > 100 µM | > 100 µM |  |  |  |  |  |  |  |  |
| Cn1nc2n(c1=O)CCCN2 | > 100 µM | > 100 µM | > 100 µM | > 100 µM | > 100 µM | > 100 µM | > 100 µM | > 100 µM |  |  |  |  |  |  |  |  |  |  |
| COC(=O)[C@H]1[C@@H](C(C)C)O[C@@H](C(C)C)O[C@H]1C(F)(F)F | > 100 µM | > 100 µM | > 100 µM | > 100 µM | > 100 µM | > 100 µM | > 100 µM | > 100 µM | > 100 µM |  |  |  |  |  |  |  |  |  |
| N=C1N(S(=O)(=O)c2ccccc2)[C@@H](Cc2ccccc2)[C@H](c2ccccc2)C1(c1ccccc1)c1ccccc1 |  | > 100 µM | > 100 µM | > 100 µM | > 100 µM | > 100 µM | > 100 µM | > 100 µM |  | > 100 µM |  |  |  |  |  |  |  |  |
| Cc1cc(/C=C\c2ccc3ccccc3[n+]2C)c(O)c2ncccc12 | 4.48 µM | 7.5 µM |  | 3.25 µM | 1.82 µM | 13.6 µM |  | 8.95 µM | 5.68 µM | > 100 µM | 0.0995 µM | 276 nM | 224 nM | 3.03 µM | 0.375 µM | 681 nM | 1100 nM | 835 nM |
| Cc1ccccc1-n1c(C)nc2c1C(=O)c1ccccc1C2=O |  |  |  | > 100 µM | > 100 µM |  | 53.7 µM | > 100 µM |  | > 100 µM |  |  |  |  |  |  |  |  |
| CN(C)CCNC(=O)c1ccc(NCCCN(C)CCCNc2ccc3c(=O)n(CCN(C)C)c(=O)n4c5ccccc5c(=O)c2c34)c2c(=O)c3ccccc3[nH]c12 | 2.92 µM |  | 0.119 µM | 0.27 µM | 0.0296 µM | 3.32 µM | 1.22 µM | 0.262 µM | 1.89 µM | 0.228 µM |  |  |  |  |  |  |  |  |

Reference: PubChem BioAssay (NCI)
